Assays:
[1] = test system: BT-474 human mammary tumor cells; experiment: Cytotoxicity on BT-474 cells, trypan blue; format: cell-based; conditions: BT-474, trypan blue, 48 h
Procedure: (§1) The cellular viability tests were also carried out on BT-474 human mammary tumor cells (characterized as being positive triples HER2+, ER+, PR+). The BT-474 cells are in a cell culture medium identical to the preceding example and are seeded in 24-well plates at 70 000 cells per well, for determination of cellular viability using trypan blue, or in 96-well plates at 13 000 cells per well for determination of cellular viability using the MTT or LDH assay. After 96 hours (h) of culture in normal conditions, i.e. in an incubator at a temperature of 37° C. at 5% CO2, the BT-474 cells are treated for 48 h with DX101, DX107, and DX113 at 100 nM, 1 μM, 2.5 μM and 10 μM. A control is also carried out using the protocol described above but without treatment with the molecules DX101, DX107, DX113, DX117, DX119, DX121 or DX131.
(§2) After trypsin digestion for 10 minutes at 37° C., cell survival was quantified, also by a trypan blue assay with automatic counting with the Biorad TC20 equipment (TC20™ Automated Cell Counter). The trypan blue assay is based on the cell membrane integrity, which is broken in the dead cells. Trypan blue stains the dead cells blue. The Biorad TC20 cell counter counts the proportion of blue cells and non-blue cells, relative to the cell percentages. The percentage viability is then determined in each well relative to the untreated cells and the IC50 is determined as explained in the preceding example. The percentage viability of the BT-474 cells was determined using the MTT and LDH assay, carried out as described in the preceding example.

4T1 cells [2] = experiment: Cytotoxicity on 4T1 cells, LDH; format: cell-based, murine; conditions: Mus musculus
Procedure: (§3) The cellular viability tests were carried out on murine mammary tumor 4T1 cells characterized as negative triples (HER2−, ER−, PR−).
(§4) For this experiment, a cell culture medium was prepared. The culture medium consists of Dulbecco's Modified Eagle Medium (DMEM, marketed by Westburg under the reference LO BE12-604F), comprising 4.5 g/L glucose with L-glutamine, to which 10% of fetal calf serum (FCS) and 50 U/mL of penicillin/streptomycin are added. The 4T1 cells are introduced into this culture medium.
(§5) 96-well plates were seeded with 2000 4T1 cells per well. After 72 hours (h) of culture in normal conditions, i.e. in an incubator at a temperature of 37° C. at 5% CO2, the 4T1 cells are treated for 48 h with DX101, DX107, DX113, DX117, DX119, DX121 or DX131 at 100 nM, 1 μM, 2.5 μM and 10 μM. A control condition (CTL) is also carried out in parallel using the protocol described above but without treatment with the molecules DX101, DX107, DX113, DX117, DX119, DX121, DX131 or DX133.
(§6) For the second method, the percentage viability is determined using assay of the activity of the enzyme LDH (lactate dehydrogenase) in the cellular supernatants using the kit non radioactive cytotoxicity assay kit (Promega). LDH is an enzyme released in the supernatant of dead cells. The higher the LDH activity in the supernatant, the greater is the cell death. In this enzyme test, the LDH released converts a violet tetrazolium salt to formazan, of red color, absorbing at 490 nm. The intensity of the red color is proportional to the number of dead cells. After 48 h of treatment, the supernatants are transferred to a new 96-well plate and are incubated for 30 minutes in the presence of the substrate mix at room temperature. The reaction is stopped using the stop buffer and the absorbance is determined at 490 nm. The percentage cell death is determined here using a control 100% of maximum activity of LDH (carried out with untreated cells incubated in the presence of the lysis solution for 45 minutes at 37° C. just before adding the substrate mix), and the cellular viability in each well is then deduced from this percentage. IC50 is then determined as explained in the preceding paragraph.

4T1 cells [3] = experiment: Cytotoxicity on 4T1 cells, CellTox Green Cytotoxicity Assay; format: cell-based, murine; conditions: Mus musculus
Procedure: as §3, §4, §5
For the third method, the percentage viability is determined using the kit CellTox Green Cytotoxicity Assay (Promega). This assay measures cell death via a change in membrane integrity. […] As a result, the higher the fluorescence in the wells, the greater is the cell death. After 48 h of treatment, the cells are incubated for a minimum of 15 minutes in the presence of the Celltox green reagent at room temperature and the fluorescence is read at […]. The percentage cell death is determined using the control 100% of cell death (carried out for untreated cells incubated in the presence of the lysis solution for 30 minutes at 37° C. before adding the Celltox green reagent), and the cellular viability in each well is then deduced from this percentage. IC50 is then determined as explained above.

4T1 cells [4] = experiment: Cytotoxicity on 4T1 cells, MTT; format: cell-based, murine; conditions: Mus musculus
Procedure: as §3, §4, §5
(§7) Cellular viability is measured by three different methods. For the first method, MTT labeling is carried out at 48 hours. This test is based on the use of the tetrazolium salt MTT (3-(4,5-dimethylthiazol-2-yl)-2,5-diphenyltetrazolium bromide). The tetrazolium is reduced by mitochondrial succinate dehydrogenase of active living cells, to formazan, a precipitate of a violet color. The quantity of precipitate formed is proportional to the quantity of living cells but also to the metabolic activity of each cell. […] After 48 hours, the medium is aspirated, and the cells are incubated with MTT (0.5 mg/ml in culture medium) for about 3 hours. The MTT solution is aspirated and the violet crystals are dissolved in dimethylsulfoxide (DMSO). The OD (optical density) is measured at 550 nm. The percentage viability is then determined in each well relative to the CTL and the IC50 (concentration for which there are still 50% of living cells) is determined for each molecule with Prism software using the nonlinear regression straight line (log(inhibitor) vs. Response).

[5] = test system: BT-474 human mammary tumor cells; experiment: Cytotoxicity on BT-474 cells, MTT; format: cell-based; conditions: for Mean LogIC50 (±SEM): log of IC50 in μM; for IC50: Homo sapiens
Procedure: as §7, §1, §2

[6] = test system: BT-474 human mammary tumor cells; experiment: Cytotoxicity on BT-474 cells, LDH; format: cell-based; conditions: for Mean LogIC50 (±SEM): log of IC50 in μM; for IC50: Homo sapiens
Procedure: as §6, §1, §2

[7] = Pharmacokinetic study of DX117 (LC/MS in plasma); format: in vivo; conditions: rat, 50 mg/kg, administered compound assayed
Description: (§8) The following study is a determination by LC/MS in plasma of the various molecules over 3 days (11 measurement points at the end). The graphs are always presented in comparison with DX101, which is the reference. […]

[8] = Pharmacokinetic study of DX121 (LC/MS in plasma); format: in vivo; conditions: rat, oral 50 mg/kg, administered compound assayed
Description: as §8

[9] = biological target: T1, cholesterol epoxide hydrolase (ChEH) (Homo sapiens, UniProt Q15125); experiment: Activity of cholesterol epoxide hydrolase (ChEH) in MCF-7 cells, [14C]5,6α-EC metabolization by TLC; format: cell-based; conditions: MCF-7, 1 μM, 24 h, [14C]5,6α-EC 0.6 μM
T1 construct: endogenous in cells; host or cells: MCF-7
T1 sequence (Q15125 whole entry): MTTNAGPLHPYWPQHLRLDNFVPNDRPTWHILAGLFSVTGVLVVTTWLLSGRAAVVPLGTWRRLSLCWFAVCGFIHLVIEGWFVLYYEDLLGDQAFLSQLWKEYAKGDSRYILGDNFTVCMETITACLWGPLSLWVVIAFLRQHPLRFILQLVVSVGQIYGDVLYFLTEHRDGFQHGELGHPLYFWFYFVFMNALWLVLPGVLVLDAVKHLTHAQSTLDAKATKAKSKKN
Description: The compounds 5,6α-epoxycholesterol (5,6α-EC) and 5,6β-epoxycholesterol (5,6β-EC) are oxysterols involved in the anticancer pharmacology of tamoxifen, a widely used antitumor drug. They are both metabolized in cholestan-3β,5α,6β-triol (CT) by the enzyme cholesterol-5,6-epoxide hydrolase (ChEH), and CT is metabolized by the enzyme HSD11B2 (11β-hydroxysteroid dehydrogenase 2) to 6-oxo-cholestan-3β,5α-diol (OCDO), an oncosterone tumor promoter.
MCF-7 cells are in a cell culture medium identical to example 20 and are seeded in 6-well plates at 150000 cells per well with 3 wells per treatment condition. 24 h after seeding, the MCF-7 cells are treated with [^14C]5,6α-EC (stock solution 1000×: 0.6 mM; 20 μCi/μmol; final concentration 0.6 μM) alone or in combination with tamoxifen (tam). Tamoxifen is used as positive control of the study compounds. The treatment with the compound according to the invention is carried out at a concentration of 1 μM.
After 24 hours of treatment, the media are collected and lipid extracts are prepared from the cell pellets by extraction with 100 μL of chloroform, 400 μL of methanol and 300 μL of water. The lipid extracts are analyzed by thin-layer chromatography (TLC) using ethyl acetate (EtOAc) as eluent. The analysis is carried out using a plate reader and then by autoradiography.

[10] = 4T1, LDH, 48 h, log of IC50 in μM, read-out: Mean LogIC50 (±SEM) (converted)
[11] = 4T1, Green Cytotoxicity Assay, 48 h, log of IC50 in μM, read-out: Mean LogIC50 (±SEM) (converted)
[12] = 4T1, Green Cytotoxicity Assay, 48 h, read-out: IC50
[13] = 4T1, MTT, 48 h, log of IC50 in μM, read-out: Mean LogIC50 (±SEM) (converted)
[14] = BT-474, MTT, 48 h, read-out: IC50
[15] = BT-474, LDH, 48 h, read-out: IC50
[16] = 4T1, 48 h, read-out: Mean LogIC50 (±SEM) (converted)

Compound | IC50 (4T1 cells [2]; [10]) [µM] | IC50 (4T1 cells [2]; 4T1, LDH, 48 h, read-out: IC50) [µM] | IC50 (4T1 cells [3]; [11]) [µM] | IC50 (4T1 cells [3]; [12]) [µM] | IC50 (4T1 cells [4]; [13]) [µM] | IC50 (4T1 cells [4]; 4T1, MTT, 48 h, read-out: IC50) [µM] | Mean LogIC50 (±SEM) ([5]; BT-474, MTT, 48 h) | IC50 [5, 14] [µM] | Mean LogIC50 (±SEM) ([6]; BT-474, LDH, 48 h) | IC50 [6, 15] [µM] | further results
CCCCCC(=O)O[C@H]1CC[C@]2(C)[C@H]3CC[C@]4(C)[C@@H]([C@H](C)CCCC(C)C)CC[C@H]4[C@@H]3C[C@@H](NCCc3cnc[nH]3)[C@@]2(O)C1 [DX113, 5α-hydroxy-6β-[2-(1H-imidazol-4-yl)-ethylamino]-cholestan-3β-yl hexanoate] | 5.25 | 5.28 | 11 | 10.9 | 18.2 | 18.2 | 1.33 ± 0.07 | 21.4 | 1.38 ± 0.07 | 23.7 | Mean LogIC50 (±SEM) ([1]; log of IC50 in μM): 1.09 ± 0.15; IC50 ([1]; Homo sapiens): 12.3 µM
CC(C)CCCC(C)[C@H]1CCC2C3C[C@@H](NCCc4c[nH]cn4)[C@@]4(O)C[C@@H](OC(=O)NCCc5c[nH]cn5)CC[C@]4(C)C3CC[C@@]21C (stereo partly drawn) [DX117, 5α-hydroxy-6β-[2-(1H-imidazol-4-yl)ethylamino]-cholestan-3β-yl-(2-(1H-imidazol-4-yl)ethyl)carbamate] | 8.32 | 8.31 | 9.55 | 9.54 | 11 | 10.9 | 0.79 ± 0.06 | 6.17 | 0.72 ± 0.18 | 5.25 | Concentration max [7]: 76.67 nM; Area under curve ([7]; 0-72 h): 2123
CCCCOC(=O)O[C@H]1CC[C@]2(C)[C@H]3CC[C@]4(C)[C@@H]([C@H](C)CCCC(C)C)CC[C@H]4[C@@H]3C[C@@H](NCCc3c[nH]cn3)[C@@]2(O)C1 [DX119, 5α-hydroxy-6β-[2-(1H-imidazol-4-yl)ethylamino]cholestan-3β-yl butyl carbonate] | 3.09 | 3.12 | 3.63 | 3.67 | 9.33 | 9.23 | 1.33 ± 0.06 | 14.5 | 1.41 ± 0.01 | 25.4 | –
CCOC(=O)O[C@H]1CC[C@]2(C)[C@H]3CC[C@]4(C)[C@@H]([C@H](C)CCCC(C)C)CC[C@H]4[C@@H]3C[C@@H](NCCc3c[nH]cn3)[C@@]2(O)C1 [DX121, 5α-hydroxy-6β-[2-(1H-imidazol-4-yl)ethylamino]cholestan-3β-yl ethyl carbonate] | 4.68 | 4.69 | 6.61 | 6.59 | 11 | 10.8 | 1.05 ± 0.17 | 11.2 | 1.47 ± 0.40 | 11.8 | Concentration max [8]: 96.33 nM; Area under curve ([8]; 0-72 h): 1000
CCN(CC)C(=O)O[C@H]1CC[C@]2(C)C3CC[C@@]4(C)C(CC[C@@H]4C(C)CCCC(C)C)C3C[C@@H](NCCc3c[nH]cn3)[C@@]2(O)C1 (stereo partly drawn) [DX131, 5α-hydroxy-6β-[2-(1H-imidazol-4-yl)ethylamino]cholestan-3β-yl-diethyl carbamate] | – | – | – | – | – | – | 1.08 ± 0.08 | – | 1.45 ± 0.08 | – | IC50 (4T1 cells [2]; 4T1, 48 h): 6.76 µM; IC50 (4T1 cells [2]; [16]): 6.76 µM; IC50 (4T1 cells [3]; 4T1, 48 h): 1.81 µM; IC50 (4T1 cells [3]; [16]): 1.7 µM; IC50 (4T1 cells [4]; 4T1, 48 h): 25.7 µM; IC50 (4T1 cells [4]; [16]): 25.7 µM; IC50 ([5]; BT-474, 48 h): 12 µM; IC50 ([6]; BT-474, 48 h): 28.2 µM
CCC(=O)NC(Cc1ccc(O)cc1)C(=O)O[C@H]1CC[C@]2(C)C3CC[C@@]4(C)C(CC[C@@H]4C(C)CCCC(C)C)C3C[C@@H](NCCc3c[nH]cn3)[C@@]2(O)C1 (stereo partly drawn) [DX133, 5α-hydroxy-6β-[2-(1H-imidazol-4-yl)ethylamino]cholestan-3β-yl propionyltyrosine] | 4.17 | 4.17 | 3.55 | 3.56 | 12.3 | 12.2 | – | – | – | – | –
CC/C(=C(\c1ccccc1)c1ccc(OCCN(C)C)cc1)c1ccccc1 [tamoxifen] | – | – | – | – | – | – | – | – | – | – | inhibition of ChEH activity [9]: total inhibition

From patent US20240002429A1, “PRODRUG OF 5a-HYDROXY-6ß-[2-(1H-IMIDAZOL-4-YL)ETHYLAMINO]CHOLESTAN-3ß-OL AND PHARMACEUTICAL COMPOSITIONS COMPRISING SAME FOR USE IN THE TREATMENT OF CANCER” (priority 2020, published 2024)
